Results as given in US4996223A, “New organic compounds having opioid properties” (priority 1986, dated 1991).
Values after ≈ are worked out from the molar mass of the structure shown. “Also recorded” adds a separate entry of the source. Where two headings read alike, the source gives them in different places.

Columns and labels:
[1] = test system: opioid receptors of the guinea pig ileum; type: cell-based; conditions: for inhibition of electrically induced contractions / antagonism by naloxone / opioid (opiate-like) activity in vitro: words; for antagonism by naloxone: naloxone 0.5, 5 and 50 ng/ml (eseroline) or 5 and 50 ng/ml; for log dose ratio (±S.D.), shift by naloxone, ileum: mean of not less than 6 determinations; for enhancement of electrically induced contractions / excitatory stage: eseroline above 400 ng/ml in presence of naloxone; for evidence of cholinesterase inhibition on the ileum: inferred from enhancement of contractions; for opioid (opiate-like) activity in vitro: isolated tissue preparations
Experimental: Sections of guinea-pig ileum were set up for transmural stimulation under a resting tension of 0.75 g in Krebs solution bubbled with 5% carbon dioxide in oxygen at 37 degrees C according to the method of Kosterlitz and Watt (1968) Contractions were elicited from stainless steel electrodes, one of which was sited in the lumen at supramaximal voltage and a frequency of 0.05 Hz. Isometric contractions were recorded on a Rikadenki recorder. Potential agonists were added directly to the bath and the contact time was until maximum inhibition had occurred. The responses of the preparation in the presence of naloxone were examined with the naloxone present in the physiological solution. Results were expressed as percent inhibition. In each experiment a log dose effect relationship was determined using at least four concentrations in the absence of antagonist, and then in the presence of one or more concentrations of naloxone.
(§1) Eseroline was dissolved in minimal 0.1N hydrophloric acid and dilutions made with water. Salts were dissolved in water.

[2] = test system: opioid receptors of the mouse vas deferens; type: cell-based; conditions: for log dose ratio (±S.D.), shift by naloxone, vas deferens: mean of not less than 6 determinations
Experimental: Vasa deferentia were removed and mounted in 1.2 ml tissue baths under a resting tension of 200 mg in Mg^2+ -free Krebs solution bubbled with a mixture of 95% oxygen and 5% carbon dioxide at 36 degrees C. The preparations were left for 1 hour to equilibriate. Contractions were elicited from platinum electrodes fused to the sides of the tissue bath using supramaximal voltage (usually above 100 V), a pulse width of lms and a frequency of 0.1 Hz. Isometric contractions were recorded on a Grass polygraph. As with the ileum, concentration effect relationships were determined in the absence then presence of naloxone.
as §1
The values are derived from individual comparisons of the percentage inhibition of the preparations in the presence of a concentration of naloxone and that in the same preparation in the absence of naloxone.

mice [3] = assay: animal or person; type: in vivo, mouse; conditions: for ED50: Mus musculus, read-out: ED50 Hot Plate; for antagonism of analgesia by naloxone: analgesic tests (Hot Plate and Abdominal Constriction)
Experimental: (§2) Analgesic activity was assessed using two methods in mice--the Hot Plate Test and the Abdominal Constriction Test (acetic acid). The test drug was given by subcutaneous injection and the results expressed as ED50 with 95% confidence intervals.
(§3) ED50 and 95% confidence intervals.
(§4) mg/kg, subcutaneous injection.

mice [4] = assay: animal or person; type: in vivo; conditions: Mus musculus, sc, subcutaneous injection, 95% confidence intervals, read-out: ED50 Abdominal Constriction (Acetic acid)
Experimental: as §2, §3, §4

[5] = test system: cholinesterase (guinea pig ileum as the enzyme source); assay: Anticholinesterase Test (method of Ellman, Courtney et al.); type: biochemical; conditions: concentrations up to 6.4 ug/ml where stated
Experimental: Anticholinesterase activity was assessed using the method of Ellman, Courtney et al., (1961) using guinea pig ileum as the enzyme source.

[6] = relative to morphine; cited from earlier work
cholinesterase = conditions: cited from earlier work
[7] = Naloxone 10 ng/ml (so in the source)

SMILES | inhibition of electrically induced contractions ([1]; guinea pig ileum) | antagonism by naloxone ([1]; guinea pig ileum) | receptor selectivity / receptor population compared with morphine [1] | enhancement of electrically induced contractions / excitatory stage ([1]; guinea pig ileum) | evidence of cholinesterase inhibition on the ileum [1] | opioid (opiate-like) activity in vitro [1] | antagonism of analgesia by naloxone (mice [3]; mice) | antagonist activity against morphine [1] | other results
CN1CC[C@]23c4c5ccc(O)c4O[C@H]2[C@@H](O)C=C[C@H]3[C@H]1C5 [morphine, reference compound] | familiar inhibition of the preparation | naloxone antagonism was confirmed | – | – | – | – | – | – | times more potent than (±)-6-hydroxy-9,10-dimethyl-echiboline ([1]; guinea pig ileum, from EC50 values): 2.8 times; times more potent than (±)-6-hydroxy-9,10-dimethyl-echiboline ([2]; mouse vas deferens, from EC50 values): 3.6 times; ED50 (mice [3]; sc): 3.22 mg/kg
CN1CCC23CCCCC12N(C)c1ccc(O)cc13 (racemic) [6-hydroxy-9,10-dimethyl-echiboline, 1,2,3,4-tetrahydro-6-hydroxy-9,10-dimethyl-9a,4a-(iminoethano)-9H-carbazole] | similarly inhibited the electrically-induced contractions | antagonised by naloxone in a concentration-dependent manner | differs from that of morphine | at no stage was an excitatory stage seen; also recorded: No enhancement of contractions was seen | no evidence of cholinesterase inhibition | possessed opiate-like activity | antagonised by naloxone | – | log dose ratio (±S.D.), shift by naloxone, ileum ([1]; Naloxone 5 ng/ml): 0.91 (+0.27); log dose ratio (±S.D.), shift by naloxone, ileum [1, 7]: 1.54 (+0.22); EC50 (±SD) Guinea-pig ileum ([1]; Table 1, mean of not less than 12 determinations, S.D. range on next line): 0.0335 µg/mL (≈ 0.13 µM); inhibition, some individual values ([1]; guinea pig ileum, individual values): over 90%; antagonism by naloxone compared with morphine [2]: some ten times less effective as an antagonist than against morphine; log dose ratio (±S.D.), shift by naloxone, vas deferens [2, 7]: 0.87 (+0.19); log dose ratio (±S.D.), shift by naloxone, vas deferens ([2]; Naloxone 500 ng/ml): 1.66 (+0.13); ED50 (mice [3]; sc, mice, subcutaneous injection, 95% confidence intervals): 1.71 mg/kg; potency relative to morphine in mice (mice [3]; mouse, in vivo, sc): somewhat greater than that predicted from the in vitro tests; ED50 (mice [4]): 0.23 mg/kg; anti-cholinesterase inhibitory activity [5]: no evidence of cholinesterase inhibitory activity; anti-cholinesterase inhibitory activity ([5]; listed as echiboline derivative): no detectable anti-cholinesterase inhibitory activity
CN1c2ccc(O)cc2C23CCCCC12N(CC1CC1)CC3 (racemic) [1,2,3,4-tetrahydro-6-hydroxy-9-methyl-10-cyclopropylmethyl-9a,4a-(iminoethano)-9H-carbazole] | inhibited the contractions of the ileum, but was of weaker potency | Naloxone had little antagonist activity | – | – | – | – | – | no detectable antagonist activity against morphine | –
C=CCN1CCC23CCCCC12N(C)c1ccc(O)cc13 (racemic) [6-Hydroxy-9-methyl-10-allyl-echiboline, 1,2,3,4-tetrahydro-6-hydroxy-9-methyl-10-allyl-9a,4a-(iminoethano)-9H-carbazole] | – | antagonized by naloxone; also recorded: relative lack of potency of naloxone as an antagonist | interaction with a different receptor population than that with which morphine interacts; also recorded: likely to be the "kappa" receptor | – | – | possesses opioid agonist activity in vitro | – | no antagonist activity against morphine | IC50, inhibition of contractions of the ileum [1]: 0.3 µg/mL; potency relative to morphine [1]: about ten times less potent than morphine
C=CCN1CC[C@]23c4c5ccc(O)c4O[C@H]2C(=O)CC[C@@]3(O)[C@H]1C5 [Naloxone, naloxone, reference compound] | – | – | – | – | – | – | effective antagonist | – | –
CN1CCC2(C)c3cc(O)ccc3N(C)C12 (single isomer, unassigned) [eseroline, reference compound] | concentration-dependent inhibition of contractions | antagonised by naloxone in a concentration-dependent manner | – | enhanced electrically-induced contractions of the muscle | evidence for anti-cholinesterase activity was also seen | has opiate activity | – | – | maximum inhibition of electrically induced contractions ([1]; guinea pig ileum): about 50%; analgesic properties [6]: approximately equipotent with morphine; anticholinesterase activity (cholinesterase): retains undesirable anticholinesterase activity
